This assay relates to LPS-induced cytokine expression in human mononuclear cells. Nature of the assay: Inhibition of LPS-induced cytokine secretion of human mononuclear cells. To be noted: comparison of Pep12, 17-1 and 19-1. Format: cell-based. On the procedure:
Human mononuclear cells (MNC): heparinized (20 IU/ml) blood obtained from healthy donors was mixed with an equal volume of Hank's balanced solution, layered over Ficoll, and centrifuged for 40 min (21° C., 500 g). The interphase layer of MNC was collected and washed twice in Hank's medium and then resuspended in RPMI 1640 supplemented with 2 mM L-glutamine, 100 U/ml penicillin, and 100 μg/ml streptomycin. MNC (200 μl/well; 5×10^6 cells/ml) were transferred into 96-well culture plates. Twenty microliters of a mixture containing LPS (100 ng/ml or 10 ng/ml) and Gra-pep (10:1 weight % excess) was added to each well. Supernatants were harvested after 4 h incubation at 37° C. under 5% CO2, and TNFα production was measured in a sandwich-ELISA. TNFα was determined in duplicate at two different dilutions and the values from two independent experiments were averaged.

No end group written: not given here.

As for “GCKKFRRLKWKYKGKFWFWCG (GCKKFRRLKWKYKGKFWFWCG-NH2; cysteine pairing not given here) [Pep 19-1]”, the “Inhibition of LPS-induced cytokine production” value is listed as “inhibits most strongly”.

These data come from patent US8633164B2, “Antimicrobial peptides” (priority 2008, dated 2014).
